Structures can show the parent of a compound that is named as a salt.
Target: Aurora A (Homo sapiens (Human), UniProt O14965)
Assay: Aurora A inhibition assay (Z-Lyte)
Format: biochemical

Sequence of Aurora A (O14965 whole entry): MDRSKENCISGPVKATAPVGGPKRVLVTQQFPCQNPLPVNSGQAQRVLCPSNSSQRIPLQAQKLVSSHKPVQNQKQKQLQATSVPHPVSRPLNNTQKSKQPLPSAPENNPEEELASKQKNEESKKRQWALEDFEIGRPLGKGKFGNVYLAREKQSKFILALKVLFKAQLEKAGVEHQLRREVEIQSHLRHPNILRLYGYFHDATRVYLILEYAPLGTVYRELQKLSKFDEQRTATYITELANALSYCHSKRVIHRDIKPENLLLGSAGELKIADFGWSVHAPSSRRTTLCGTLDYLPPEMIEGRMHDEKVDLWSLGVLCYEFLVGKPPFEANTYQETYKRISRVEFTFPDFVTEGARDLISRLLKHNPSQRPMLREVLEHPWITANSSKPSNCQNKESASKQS

| SMILES | inhibition at 1 µM [%] |
| --- | --- |
| COc1ccc2c(c1)[C@]1(C[C@H]1c1ccc3c(/C=C/c4ccc(OCCN5CCOCC5)cc4)n[nH]c3c1)C(=O)N2 [Example A194, (1R,2S)-(E)-5′-methoxy-2-(3-(4-(2-morpholinoethoxy)styryl)-1H-indazol-6-yl)spiro[cyclopropane-1,3′-indolin]-2′-one 2,2,2-trifluoroacetate] | > 50 |
| CN1CCN(c2ccc(-c3n[nH]c4cc([C@@H]5C[C@@]56C(=O)Nc5ccc(OC(F)F)cc56)ccc34)cn2)CC1 (relative stereo) [Example A209, 1R*,2S*1-5′-(difluoromethoxy)-2-(3-(6-(4-methylpiperazine-1-yl)pyridine-3-yl)-1H-indazol-6-yl) spiro[cyclopropane-1,3′-indolin]-2′-one 2,2,2-trifluoroacetate] | < 50 |
| COc1ccc2c(c1)[C@]1(C[C@H]1c1ccc3c(-c4ccc(CN5CCN(C)CC5)cc4)n[nH]c3c1)C(=O)N2 (relative stereo) [Example A140, (1R*,2S*)-5′-methoxy-2-(3-(4-((4-methylpiperazin-1-yl)methyl)phenyl)-1H-indazol-6-yl)spiro[cyclopropane-1,3′-indolin]-2′-one bis-2,2,2-trifluoroacetate] | < 50 |
| CN(C)Cc1ccc(/C=C/c2n[nH]c3cc([C@@H]4C[C@@]45C(=O)N(C)c4ccccc45)ccc23)cc1 [Example A109, (1R,2S)-(E)-2-(3-(4-((dimethylamino)methyl)styryl)-1H-indazol-6-yl)-1′-methylspiro[cyclopropane-1,3′-indolin]-2′-one 2,2,2-trifluoroacetate] | > 50 |
| COc1ccc2c(c1)[C@]1(C[C@H]1c1ccc3c(-c4cccc(CN5CCCCC5)c4)n[nH]c3c1)C(=O)N2 (relative stereo) [Example A44, (1R*,2S*)-5′-methoxy-2-(3-(3-(piperidin-1-ylmethyl)phenyl)-1H-indazol-6-yl)spiro[cyclopropane-1,3′-indolin]-2′-one 2,2,2-trifluoroacetate] | < 50 |
| COc1ccc2c(c1)[C@]1(C[C@H]1c1ccc3c(-c4ccc(C5CCN(C)CC5)cc4)n[nH]c3c1)C(=O)N2 [Example A123, (1R,2S)-5′-methoxy-2-(3-(4-(1-methylpiperidin-4-yl)phenyl)-1H-indazol-6-yl)spiro[cyclopropane-1,3′-indolin]-2′-one hydrochloride] | < 50 |
| COc1ccc2c(c1)[C@@]1(C[C@@H]1c1ccc3c(-c4ccc(N5CCN(C)CC5)nc4)n[nH]c3c1)C(=O)N2 (stereo in doubt) [Example A16, (1S,2R)-5′-methoxy-2-(3-(6-(4-methylpiperazin-1-yl)pyridin-3-yl)-1H-indazol-6-yl)spiro[cyclopropane-1,3′-indolin]-2′-one] | < 50 |
| CN1CCN(Cc2ccc(-c3n[nH]c4cc([C@@H]5C[C@@]56C(=O)Nc5ccccc56)ccc34)cc2)CC1 (relative stereo) [Example A155, (1R*,2S*)-2-(3-(4-((4-methylpiperazin-1-yl)methyl)phenyl)-1H-indazol-6-yl)spiro[cyclopropane-1,3′-indolin]-2′-one bis-2,2,2-trifluoroacetate] | < 50 |
| COc1ccc2c(c1)[C@]1(C[C@H]1c1ccc3c(/C=C/c4ccc(CC5CCN(C)CC5)cc4)n[nH]c3c1)C(=O)N2 [Example A82, (1R,2S)-(E)-5′-methoxy-2-(3-(4-((l-methylpiperidin-4-yl)methyl)styryl)-1H-indazol-6-yl)spiro[cyclopropane-1,3′-indolin]-2′-one 2,2,2-trifluoroacetate salt] | > 50 |
| CCN1Cc2ccc(/C=C/c3n[nH]c4cc([C@@H]5C[C@@]56C(=O)Nc5ccc(OC)cc56)ccc34)cc2C1 (relative stereo) [Example A190, (1R*,2S*)-2-(3-((E)-2-(2-ethylisoindolin-5-yl)vinyl)-1H-indazol-6-yl)-5′-methoxyspiro[cyclopropane-1,3′-indolin]-2′-one 2,2,2-trifluoroacetate] | > 50 |
| O=C1Nc2ccc(F)cc2[C@]12C[C@H]2c1ccc2c(/C=C/c3ccc(CN4CCOCC4)cc3)n[nH]c2c1 (relative stereo) [Example A219, 1R*,2S*)-(E)-5′-fluoro-2-(3-(4-(morpholinomethyl)styryl-1H-indazol-6-yl)spiro[cyclopropane-1,3′-indolin]-2′-one 2,2,2-trifluoroacetate] | > 50 |
| CCN1CCN(c2ccc(/C=C/c3n[nH]c4cc([C@@H]5C[C@@]56C(=O)Nc5ccc(OC)cc56)ccc34)cc2)CC1 (relative stereo) [Example A188, (1R*,2S*)-(E)-2-(3-(4-(4-ethylpiperazin-1-yl)styryl)-1H-indazol-6-yl)-5′-methoxyspiro[cyclopropane-1,3′-indolin]-2′-one 2,2,2-trifluoroacetate] | > 50 |
| O=C1Nc2ccccc2[C@]12C[C@H]2c1ccc2c(/C=C/c3cccnc3)n[nH]c2c1 [Example A29, (1R,2S)-2-(3-((E)-2-(pyridin-3-yl)vinyl)-1H-indazol-6-yl)spiro[cyclopropane-1,3′-indolin]-2′-one] | > 50 |
| COc1ccc2c(c1)[C@@]1(C[C@@H]1c1ccc3c(-c4ccc(N5CCN(C)CC5)nc4)n[nH]c3c1)C(=O)N2 [Example A15, (1S,2R)-5′-methoxy-2-(3-(6-(4-methylpiperazin-1-yl)pyridin-3-yl)-1H-indazol-6-yl)spiro[cyclopropane-1,3′-indolin]-2′-one] | < 50 |
| COc1ccc2c(c1)[C@]1(C[C@H]1c1ccc3c(/C=C/c4cccnc4)n[nH]c3c1)C(=O)N2 [Example A197, (1R,2S)-5′-methoxy-2-(3-((E)-2-(pyridin-3-yl)vinyl)-1H-indazol-6-yl)spiro[cyclopropane-1,3′-indolin]-2′-one] | > 50 |
| CN1C(=O)[C@@]2(C[C@H]2c2ccc3c(/C=C/c4ccc(CN5CCCCC5)cc4)n[nH]c3c2)c2ccccc21 [Example A94, (1R,2S)-(E)-1′-methyl-2-(3-(4-(piperidin-1-ylmethyl)styryl)-1H-indazol-6-yl)spiro[cyclopropane-1,3′-indolin]-2′-one hydrochloride] | > 50 |
| O=C1Nc2ccc(F)cc2[C@]12C[C@H]2c1ccc2c(/C=C/c3ccc(N4CCOCC4)nc3)n[nH]c2c1 (relative stereo) [Example A207, (1R*,2S*)-5′-fluoro-2-(3-((E)-2-(6-morpholinopyridin-3-yl)vinyl)-1H-indazol-6-yl)spiro[cyclopropane-1,3′-indolin]-2′-one 2,2,2-trifluoroacetate] | > 50 |
| O=C1Nc2ccccc2[C@]12C[C@H]2c1ccc2c(/C=C/c3ccc4c(c3)CNCCO4)n[nH]c2c1 [Example A113, (1R,2S)-2-(3-((E)-2-(2,3,4,5-tetrahydrobenzo[f][1,4]oxazepin-7-yl)vinyl)-1H-indazol-6-yl)spiro[cyclopropane-1,3′-indolin]-2′-one 2,2,2-trifluoroacetate] | > 50 |
| COc1ccc2c(c1)[C@]1(C[C@H]1c1ccc3c(-c4ccc(OCCN(C)C)cc4)n[nH]c3c1)C(=O)N2 [Example A69, (1R,2S)-2-(3-(4-(2-(dimethylamino)ethoxy)phenyl)-1H-indazol-6-yl)-5′-methoxyspiro[cyclopropane-1,3′-indolin]-2′-one 2,2,2-trifluoroacetate salt] | < 50 |
| CCN1CCN(c2ccc(-c3n[nH]c4cc([C@@H]5C[C@@]56C(=O)Nc5ccc(OC)cc56)ccc34)cc2)CC1 [Example A99, (1R,2S)-2-(3-(4-(4-ethylpiperazin-1-yl)phenyl)-1H-indazol-6-yl)-5′-methoxyspiro[cyclopropane-1,3′-indolin]-2′-one 2,2,2-trifluoroacetate] | < 50 |
| O=C1Nc2ccccc2[C@]12C[C@H]2c1ccc2c(/C=C/c3cccnc3)n[nH]c2c1 (relative stereo) [Example A28, (1R*,2S*)-2-(3-((E)-2-(pyridin-3-yl)vinyl)-1H-indazol-6-yl)spiro-[cyclopropane-1,3′-indolin]-2′-one] | > 50 |
| Cc1ccc2c(c1)[C@]1(C[C@H]1c1ccc3c(-c4ccc(N5CCN(C)CC5)cc4)n[nH]c3c1)C(=O)N2 (relative stereo) [Example A173, (1R*,2S*)-5′-methyl-2-(3-(4-(4-methylpiperazin-1-yl)phenyl)-1H-indazol-6-yl)spiro[cyclopropane-1,3′-indolin]-2′-one 2,2,2-trifluoroacetate] | < 50 |
| COc1ccc2c(c1)[C@]1(C[C@H]1c1ccc3c(-c4ccc(N5CCOCC5)nc4)n[nH]c3c1)C(=O)N2 (relative stereo) [Example A20, (1R*,2S*)*-5′-Methoxy-2-(3-(6-morpholinopyridin-3-yl)-1H-indazol-6-yl)spiro[cyclopropane-1,3′-indolin]-2′-one] | < 50 |
| CCN(CC)Cc1ccc(/C=C/c2n[nH]c3cc([C@@H]4C[C@@]45C(=O)Nc4ccc(OC)cc45)ccc23)cc1 [Example A206, (1R,2S)-(E)-2-(3-(4-((diethylamino)methyl)styryl)-1H-indazol-6-yl)-5′-methoxy spiro[cyclopropane-1,3′-indolin]-2′-one 2,2,2-trifluoroacetate] | > 50 |
| COc1ccc2c(c1)[C@]1(C[C@H]1c1ccc3c(/C=C/c4ccc5c(c4)CN(C)CC5)n[nH]c3c1)C(=O)N2 [Example A64, (1R,2S)-5′-methoxy-2-(3-((E)-2-(2-methyl-1,2,3,4-tetrahydroisoquinolin-7-yl)vinyl)-1H-indazol-6-yl)spiro[cyclopropane-1,3′-indolin]-2′-one 2,2,2-trifluoroacetate salt] | > 50 |
| COc1ccc2c(c1)[C@]1(C[C@H]1c1ccc3c(/C=C/c4cc(F)c(CN5CCOCC5)c(F)c4)n[nH]c3c1)C(=O)N2 (relative stereo) [Example A217, (1R*,2S*)-(E)-2-(3-(3,5-difluoro-4-(morpholinomethyl)styryl-1H-indazol-6-yl)-5′-methoxyspiro[cyclopropane-1,3′-indolin]-2′-one 2,2,2-trifluoroacetate] | > 50 |
| COc1ccc2c(c1)[C@]1(C[C@H]1c1ccc3c(-c4ccc(N5CCNCC5)cc4)n[nH]c3c1)C(=O)N2C [Example A101, (1R,2S)-5′-methoxy-1′-methyl-2-(3-(4-(piperazin-1-yl)phenyl)-1H-indazol-6-yl)spiro[cyclopropane-1,3′-indolin]-2′-one 2,2,2-trifluoroacetate] | < 50 |
